The test system of data set [1] is GT1b/5a NS5B chimeric replicon. Put plainly: HCV replicon assay, GT1b/5a NS5B chimeric replicon, transient transfection. In kind it is cell-based, hepatitis C virus. Conditions: Hepatitis C virus, Huh-7, 72 h, read-out: GT5a EC50, GT1b/5a NS5B chimeric replicon, Huh-7 cells, luciferase, 72 hours. As to the method:
(§1) The antiviral activity of the test compounds was assessed in the wild type GT1b (Con1), GT1a (H77), and GT1b/2a, GT1b/3a, GT1b/4a and GT1b/5a NS5B chimeric replicons, as well as the NS5B mutant replicons listed in Table 2a and 2b.
(§2) To generate HCV NS5B chimeric replicons, the GT1 b replicon was used as a backbone with the NS5B gene replaced with the NS5B gene of GT2a, GT3a, GT4a and GT5a derived from clinical isolates. These NS5B genes were cloned into the GT1b backbone and were confirmed by sequencing.
(§3) All the replicon assays were luciferase based in Huh-7 cells, either in stable format (GT1b and GT1a) or by transient transfection by electroporation (chimeric and mutant replicons). For a standard HCV replicon assay, stable or transiently transfected Huh-7 cells were seeded in 96-well plates (5,000 cells/well), cultured in DMEM containing 10% FBS, and incubated at 37° C., 5% CO2. On the following day, test compounds were diluted with assay media and added to the appropriate wells (final DMSO concentration in the cell culture medium was 0.5%). Assay reference positive control was included in each run to ensure assay performance. Cells were incubated at 37° C., 5% CO2 for 72 hours, at which time the cells were still sub-confluent. The antiviral activity was determined by measuring replicon reporter firefly luciferase activity using Bright Glo kit in accordance with the protocol provided by the supplier (Promega). The toxicity of the test compounds was assessed by CytoTox-1 cell proliferation assay (Promega). The half maximal effective concentration (EC50) and the half maximal toxic concentration (TC50) values were calculated using the GraphPad Prism software.
In general terms: Replicon systems follow genome replication, usually without infectious particles.

Data set [2] deals with GT3a L159F NS5B mutant replicon. Nature of the data set: HCV NS5B mutant replicon assay, GT3a L159F. Conditions: Hepatitis C virus, Huh-7, 72 h, read-out: GT3a L159F EC50. Type of data set: cell-based. Here is the method: as §1, §2
(§4) The HCV replicon mutants were generated by site-directed mutagenesis (SDM). The SDM was performed by PCR and the PCR fragments were inserted into the backbone replicon construct. The inserted PCR fragments and the mutants were confirmed by sequencing.
as §3

The subject of data set [3] is GT1b/2a NS5B chimeric replicon. Put plainly: HCV replicon assay, GT1b/2a NS5B chimeric replicon, transient transfection. Type of data set: cell-based, hepatitis C virus. Conditions: Hepatitis C virus, Huh-7, 72 h, read-out: GT2a EC50, GT1b/2a NS5B chimeric replicon, Huh-7 cells, luciferase, 72 hours. Here is the method: as §1, §2, §3
Data set [4] can be described thus: Nucleoside phosphoester stability in fetal bovine serum. Type of data set: in vitro ADME. Conditions: 100 μM, 37° C. Here is the method:
In another test, mononucleotide stock solutions were prepared at 10 mM in DMSO, and 10 μL of each stock solution was added to 1 mL of fetal bovine serum (FBS) to provide 100 μM of final compound concentration. These samples incubated for 24 h in a 37° C. water bath and 100 μL aliquots removed at t=0, 1, 2, 4, 6 and 24 hours. Individual samples were precipitated with 200 μL cold acetonitrile, the debris was pelleted at 14K RPM for 30 min at 4° C., and the supernatant was removed and subjected to LCMS analysis as described below.
Mobile phase A: 95:5 H2O:acetonitrile, 10 mM ammonium acetate, 0.01% formic acid
Mobile phase B: 95:5 acetonitrile:H2O, 10 mM ammonium acetate, 0.01% formic acid
Extracted ion chromatograms generated using M+1H and ammonium adduct for each compound.

In data set [5] the test system is GT1b/3a NS5B chimeric replicon. Nature of the data set: HCV replicon assay, GT1b/3a NS5B chimeric replicon, transient transfection. In kind it is cell-based, hepatitis C virus. Conditions: Hepatitis C virus, Huh-7, 72 h, read-out: GT3a EC50, GT1b/3a NS5B chimeric replicon, Huh-7 cells, luciferase, 72 hours. As to the method: as §1, §2, §3
The subject of data set [6] is GT1b C316N NS5B mutant replicon. Nature of the data set: HCV NS5B mutant replicon assay, GT1b C316N. Type of data set: cell-based. Conditions: Hepatitis C virus, Huh-7, 72 h, read-out: GT1b C316N EC50. As to the method:
as §1, §4, §3

The subject of data set [7] is GT1a L159F NS5B mutant replicon. Put plainly: HCV NS5B mutant replicon assay, GT1a L159F. Type of data set: cell-based. Conditions: Hepatitis C virus, Huh-7, 72 h, read-out: GT1a L159F EC50. Here is the method: as §1, §4, §3

pEC50: −log10 of the molar value.

`CC(C)OC(=O)[C@H](C)N[P@](=O)(OC[C@H]1O[C@@H](n2ccc(=O)[nH]c2=O)[C@](C)(F)[C@@H]1O)Oc1ccccc1` [sofosbuvir, reference compound]: the pEC50 in data set [1] is 7.19; in data set [2], 6.87; in data set [3] it was 7.44; in data set [5], 7.02 to 7.05; in data set [6], 7.60; in data set [7], 7.10. The “% t = 0” value in data set [4] (0 hours) came out at 100.0%; in data set [4] (1 hour) it was 96.2%; in data set [4] (2 hours) it was 96.5%; in data set [4] (4 hours) it was 89.0%; in data set [4] (6 hours) it was 91.6%; in data set [4] (24 hours), 102.2%.
On to `CC(C)(C)SSc1ccccc1CCOP1(=O)OC[C@H]2O[C@@H](n3ccc(=O)[nH]c3=O)[C@](C)(F)[C@@H]2O1` (single isomer, unassigned) [Compound 7A], for which the pEC50 in data set [1] is 8.10; in data set [2] it was 7.82; in data set [3], 8.52; in data set [5], 8.10; in data set [6] it was 8.05; in data set [7], 7.96. The “% t = 0” value was 100.0% in data set [4] (0 hours); 101.0% in data set [4] (1 hour); 101.0% in data set [4] (2 hours); 100.9% in data set [4] (4 hours); 92.5% in data set [4] (6 hours); 87.9% in data set [4] (24 hours).

Source of the values: US20180346505A1, “MONONUCLEOTIDES HAVING A BIOREVERSIBLE DISULFIDE GROUP” (priority 2014, published 2018).
